Results from the kinase profiling compilation of Christmann-Franck et al. (2016).

Assays:
MYLK4 (human) = MYLK4 (human) (UniProt Q86YV6); experiment: KINOMEscan competition binding; conditions: compound 10.0 µM
DYRK1B (human) = DYRK1B (human) (UniProt Q9Y463); experiment: KINOMEscan competition binding; conditions: compound 10.0 µM
MAPK12 (human) = MAPK12 (human) (UniProt P53778); experiment: KINOMEscan competition binding; conditions: compound 10.0 µM
TAOK3 (human) = TAOK3 (human) (UniProt Q9H2K8); experiment: KINOMEscan competition binding; conditions: compound 10.0 µM
MINK1 (human) = MINK1 (human) (UniProt Q8N4C8); experiment: KINOMEscan competition binding; conditions: compound 10.0 µM
MAP2K3 (human) = MAP2K3 (human) (UniProt P46734); experiment: KINOMEscan competition binding; conditions: compound 10.0 µM
GAK (human) = GAK (human) (UniProt O14976); experiment: KINOMEscan competition binding; conditions: compound 10.0 µM
STK17B (human) = STK17B (human) (UniProt O94768); experiment: KINOMEscan competition binding; conditions: compound 10.0 µM
DAPK1 (human) = DAPK1 (human) (UniProt P53355); experiment: KINOMEscan competition binding; conditions: compound 10.0 µM
CDK7 (human) = CDK7 (human) (UniProt P50613); experiment: KINOMEscan competition binding; conditions: compound 10.0 µM
DAPK2 (human) = DAPK2 (human) (UniProt Q9UIK4); experiment: KINOMEscan competition binding; conditions: compound 10.0 µM
DAPK3 (human) = DAPK3 (human) (UniProt O43293); experiment: KINOMEscan competition binding; conditions: compound 10.0 µM
PIK3CG (human) = PIK3CG (human) (UniProt P48736); experiment: KINOMEscan competition binding; conditions: compound 10.0 µM
STK17A (human) = STK17A (human) (UniProt Q9UEE5); experiment: KINOMEscan competition binding; conditions: compound 10.0 µM
PIM3 (human) = PIM3 (human) (UniProt Q86V86); experiment: KINOMEscan competition binding; conditions: compound 10.0 µM
[1] = target: TYK2 JH2 pseudokinase (human) (UniProt P29597); experiment: KINOMEscan competition binding; conditions: compound 10.0 µM
MYLK (human) = MYLK (human) (UniProt Q15746); experiment: KINOMEscan competition binding; conditions: compound 10.0 µM
PIM1 (human) [2] = target: PIM1 (human) (UniProt P11309); experiment: KINOMEscan competition binding; conditions: compound 10.0 µM
TTK (human) = TTK (human) (UniProt P33981); experiment: KINOMEscan competition binding; conditions: compound 10.0 µM
ACVR2A (human) = ACVR2A (human) (UniProt P27037); experiment: KINOMEscan competition binding; conditions: compound 10.0 µM
PIM2 (human) [3] = target: PIM2 (human) (UniProt Q9P1W9); experiment: KINOMEscan competition binding; conditions: compound 10.0 µM
HIPK1 (human) = HIPK1 (human) (UniProt Q86Z02); experiment: KINOMEscan competition binding; conditions: compound 10.0 µM
RIOK1 (human) = RIOK1 (human) (UniProt Q9BRS2); experiment: KINOMEscan competition binding; conditions: compound 10.0 µM
TGFBR2 (human) = TGFBR2 (human) (UniProt P37173); experiment: KINOMEscan competition binding; conditions: compound 10.0 µM
CDK16 (human) = CDK16 (human) (UniProt Q00536); experiment: KINOMEscan competition binding; conditions: compound 10.0 µM
CSNK2A2 (human) = CSNK2A2 (human) (UniProt P19784); experiment: KINOMEscan competition binding; conditions: compound 10.0 µM
RPS6KA4 KD2 (human) = RPS6KA4 KD2 (human) (UniProt O75676); experiment: KINOMEscan competition binding; conditions: compound 10.0 µM
PLK4 (human) = PLK4 (human) (UniProt O00444); experiment: KINOMEscan competition binding; conditions: compound 10.0 µM
AAK1 (human) = AAK1 (human) (UniProt Q2M2I8); experiment: KINOMEscan competition binding; conditions: compound 10.0 µM
MAPK15 (human) = MAPK15 (human) (UniProt Q8TD08); experiment: KINOMEscan competition binding; conditions: compound 10.0 µM
ACVR2B (human) = ACVR2B (human) (UniProt Q13705); experiment: KINOMEscan competition binding; conditions: compound 10.0 µM
GSK3A (human) = GSK3A (human) (UniProt P49840); experiment: KINOMEscan competition binding; conditions: compound 10.0 µM
MKNK2 (human) = MKNK2 (human) (UniProt Q9HBH9); experiment: KINOMEscan competition binding; conditions: compound 10.0 µM
TAOK1 (human) = TAOK1 (human) (UniProt Q7L7X3); experiment: KINOMEscan competition binding; conditions: compound 10.0 µM
PIM1 (human) [4] = target: PIM1 (human) (UniProt P11309); experiment: SelectScreen, TR FRET
PIM2 (human) [5] = target: PIM2 (human) (UniProt Q9P1W9); experiment: SelectScreen, TR FRET
CSNK2A1 (human) = CSNK2A1 (human) (UniProt P68400); experiment: KINOMEscan competition binding; conditions: compound 10.0 µM
ZAP70 (human) = ZAP70 (human) (UniProt P43403); experiment: KINOMEscan competition binding; conditions: compound 10.0 µM
CLK4 (human) = CLK4 (human) (UniProt Q9HAZ1); experiment: KINOMEscan competition binding; conditions: compound 10.0 µM
[6] = tested on: EIF2AK4 KD2 (human), Q9P2K8 [S808G]; experiment: KINOMEscan competition binding; conditions: compound 10.0 µM

Chain of PIM2 (human) (Q9P1W9 whole entry, looked up): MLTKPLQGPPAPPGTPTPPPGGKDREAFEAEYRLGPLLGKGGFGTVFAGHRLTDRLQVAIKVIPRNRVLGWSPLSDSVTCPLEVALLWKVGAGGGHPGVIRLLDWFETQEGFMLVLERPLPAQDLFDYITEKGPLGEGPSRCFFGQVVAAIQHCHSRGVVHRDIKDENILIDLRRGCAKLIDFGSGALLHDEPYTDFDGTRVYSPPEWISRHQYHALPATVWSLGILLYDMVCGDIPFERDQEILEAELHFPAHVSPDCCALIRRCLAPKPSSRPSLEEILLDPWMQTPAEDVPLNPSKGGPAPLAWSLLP
Chain of PIM1 (human) (P11309 whole entry, looked up): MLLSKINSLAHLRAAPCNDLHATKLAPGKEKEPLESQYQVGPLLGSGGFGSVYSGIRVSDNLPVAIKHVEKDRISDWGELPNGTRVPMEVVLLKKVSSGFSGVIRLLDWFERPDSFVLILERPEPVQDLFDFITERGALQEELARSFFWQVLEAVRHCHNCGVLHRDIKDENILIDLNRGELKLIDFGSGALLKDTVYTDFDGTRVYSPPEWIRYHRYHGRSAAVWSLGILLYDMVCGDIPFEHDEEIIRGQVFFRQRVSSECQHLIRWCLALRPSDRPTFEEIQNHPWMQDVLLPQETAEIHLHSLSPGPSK
Chain of PIK3CG (human) (P48736 whole entry, looked up): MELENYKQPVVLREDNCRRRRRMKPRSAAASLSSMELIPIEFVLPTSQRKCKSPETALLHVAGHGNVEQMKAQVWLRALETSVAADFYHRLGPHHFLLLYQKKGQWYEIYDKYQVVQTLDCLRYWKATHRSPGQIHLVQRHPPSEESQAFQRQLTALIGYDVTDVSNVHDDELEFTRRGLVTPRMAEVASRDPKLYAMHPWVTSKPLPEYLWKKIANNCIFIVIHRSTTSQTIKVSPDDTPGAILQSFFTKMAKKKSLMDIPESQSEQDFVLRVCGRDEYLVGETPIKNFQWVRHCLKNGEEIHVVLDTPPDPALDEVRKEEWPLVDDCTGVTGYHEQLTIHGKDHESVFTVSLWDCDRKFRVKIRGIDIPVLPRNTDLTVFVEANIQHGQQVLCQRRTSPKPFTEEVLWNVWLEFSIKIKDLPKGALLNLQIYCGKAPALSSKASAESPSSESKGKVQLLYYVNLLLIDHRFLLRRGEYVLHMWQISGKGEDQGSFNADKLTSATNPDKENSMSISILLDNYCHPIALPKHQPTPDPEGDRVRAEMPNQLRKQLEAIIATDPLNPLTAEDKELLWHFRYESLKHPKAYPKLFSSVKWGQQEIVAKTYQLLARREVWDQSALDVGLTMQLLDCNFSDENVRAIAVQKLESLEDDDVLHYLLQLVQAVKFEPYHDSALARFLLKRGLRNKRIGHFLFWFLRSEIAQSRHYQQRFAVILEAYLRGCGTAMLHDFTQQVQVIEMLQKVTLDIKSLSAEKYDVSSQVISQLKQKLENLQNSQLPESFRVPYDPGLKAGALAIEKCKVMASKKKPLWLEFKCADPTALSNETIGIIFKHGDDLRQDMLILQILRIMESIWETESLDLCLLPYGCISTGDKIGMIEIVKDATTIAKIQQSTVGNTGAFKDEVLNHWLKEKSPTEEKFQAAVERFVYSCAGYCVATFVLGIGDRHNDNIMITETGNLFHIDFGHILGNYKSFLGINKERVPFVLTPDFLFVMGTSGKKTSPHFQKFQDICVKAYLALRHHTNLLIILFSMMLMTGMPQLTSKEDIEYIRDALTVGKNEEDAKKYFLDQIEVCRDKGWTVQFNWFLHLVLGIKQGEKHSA
Chain of STK17B (human) (O94768 whole entry, looked up): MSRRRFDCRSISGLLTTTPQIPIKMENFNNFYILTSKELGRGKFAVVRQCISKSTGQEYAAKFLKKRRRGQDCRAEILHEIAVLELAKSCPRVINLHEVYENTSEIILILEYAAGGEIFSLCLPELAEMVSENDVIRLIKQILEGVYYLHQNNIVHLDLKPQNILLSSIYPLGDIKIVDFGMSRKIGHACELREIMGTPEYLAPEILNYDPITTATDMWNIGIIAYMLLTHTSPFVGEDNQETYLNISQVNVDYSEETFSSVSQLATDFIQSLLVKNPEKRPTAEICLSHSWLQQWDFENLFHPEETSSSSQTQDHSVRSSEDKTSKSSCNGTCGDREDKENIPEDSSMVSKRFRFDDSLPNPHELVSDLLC
Chain of TYK2 JH2 pseudokinase (human) (P29597 whole entry, looked up): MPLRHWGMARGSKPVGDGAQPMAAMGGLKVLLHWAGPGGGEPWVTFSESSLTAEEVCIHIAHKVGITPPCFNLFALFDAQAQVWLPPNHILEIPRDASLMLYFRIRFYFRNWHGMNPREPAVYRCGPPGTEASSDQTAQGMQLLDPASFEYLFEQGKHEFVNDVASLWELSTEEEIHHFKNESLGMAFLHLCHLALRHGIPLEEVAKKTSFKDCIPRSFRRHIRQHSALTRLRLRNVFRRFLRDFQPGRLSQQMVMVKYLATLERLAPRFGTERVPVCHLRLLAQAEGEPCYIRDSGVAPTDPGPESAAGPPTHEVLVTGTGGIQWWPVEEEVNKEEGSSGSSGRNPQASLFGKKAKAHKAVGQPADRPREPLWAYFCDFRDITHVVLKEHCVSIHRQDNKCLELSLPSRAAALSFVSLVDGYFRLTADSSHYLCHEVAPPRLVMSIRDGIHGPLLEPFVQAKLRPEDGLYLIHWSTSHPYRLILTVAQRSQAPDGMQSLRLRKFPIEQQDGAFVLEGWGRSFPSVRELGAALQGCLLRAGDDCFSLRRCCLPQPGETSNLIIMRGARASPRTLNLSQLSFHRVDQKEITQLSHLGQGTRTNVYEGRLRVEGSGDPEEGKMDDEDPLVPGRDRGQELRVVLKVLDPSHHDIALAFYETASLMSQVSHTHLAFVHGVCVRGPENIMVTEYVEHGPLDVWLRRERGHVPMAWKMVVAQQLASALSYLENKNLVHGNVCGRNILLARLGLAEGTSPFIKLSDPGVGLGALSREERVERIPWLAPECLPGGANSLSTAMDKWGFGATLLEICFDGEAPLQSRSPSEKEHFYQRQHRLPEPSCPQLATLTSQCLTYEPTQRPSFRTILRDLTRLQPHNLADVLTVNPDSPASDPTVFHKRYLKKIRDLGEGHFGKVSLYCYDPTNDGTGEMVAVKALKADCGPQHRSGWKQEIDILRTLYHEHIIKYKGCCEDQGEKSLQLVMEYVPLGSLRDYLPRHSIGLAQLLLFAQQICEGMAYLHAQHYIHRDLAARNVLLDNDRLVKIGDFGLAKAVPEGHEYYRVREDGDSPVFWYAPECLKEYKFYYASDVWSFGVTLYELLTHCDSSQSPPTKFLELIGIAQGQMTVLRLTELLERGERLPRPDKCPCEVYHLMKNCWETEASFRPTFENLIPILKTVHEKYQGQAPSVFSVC
Chain of CSNK2A2 (human) (P19784 whole entry, looked up): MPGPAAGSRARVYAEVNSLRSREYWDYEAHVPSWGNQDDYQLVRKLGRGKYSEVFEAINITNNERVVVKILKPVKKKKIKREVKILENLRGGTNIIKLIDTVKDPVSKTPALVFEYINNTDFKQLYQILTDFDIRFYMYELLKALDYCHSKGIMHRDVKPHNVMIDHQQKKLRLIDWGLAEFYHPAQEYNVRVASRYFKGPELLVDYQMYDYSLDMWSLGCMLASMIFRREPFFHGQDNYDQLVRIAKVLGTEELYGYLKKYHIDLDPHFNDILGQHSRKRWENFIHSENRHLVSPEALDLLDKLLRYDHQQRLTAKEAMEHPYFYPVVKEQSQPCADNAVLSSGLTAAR
Chain of CDK7 (human) (P50613 whole entry, looked up): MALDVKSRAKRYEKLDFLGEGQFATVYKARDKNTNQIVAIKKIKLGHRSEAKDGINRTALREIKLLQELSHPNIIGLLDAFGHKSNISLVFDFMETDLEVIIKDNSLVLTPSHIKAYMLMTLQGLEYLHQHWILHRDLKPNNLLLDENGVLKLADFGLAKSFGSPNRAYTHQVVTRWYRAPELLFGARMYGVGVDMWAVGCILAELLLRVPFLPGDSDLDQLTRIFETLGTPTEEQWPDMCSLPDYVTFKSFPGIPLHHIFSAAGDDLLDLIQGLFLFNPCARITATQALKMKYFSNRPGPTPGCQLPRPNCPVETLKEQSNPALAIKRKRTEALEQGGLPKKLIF
Chain of DAPK2 (human) (Q9UIK4 whole entry, looked up): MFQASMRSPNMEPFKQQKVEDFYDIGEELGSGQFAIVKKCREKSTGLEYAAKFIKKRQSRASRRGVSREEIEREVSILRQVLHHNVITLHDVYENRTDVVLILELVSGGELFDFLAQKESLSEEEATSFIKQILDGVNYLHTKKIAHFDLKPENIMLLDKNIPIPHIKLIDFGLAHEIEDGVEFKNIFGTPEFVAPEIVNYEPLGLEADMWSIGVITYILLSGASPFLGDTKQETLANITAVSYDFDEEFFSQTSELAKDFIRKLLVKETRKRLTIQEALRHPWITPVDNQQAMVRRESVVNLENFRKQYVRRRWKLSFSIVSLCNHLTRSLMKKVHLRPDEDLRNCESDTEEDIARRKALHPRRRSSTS

## CS(=O)(=O)Nc1ccc(-c2ccc(/C=C3\SC(=N)NC3=O)o2)cc1
MYLK4 (human)
  kinase still bound, per cent of control: 8.2%
DYRK1B (human)
  kinase still bound, per cent of control: 24%
MAPK12 (human)
  kinase still bound, per cent of control: 12%
TAOK3 (human)
  kinase still bound, per cent of control: 16%
MINK1 (human)
  kinase still bound, per cent of control: 30%
MAP2K3 (human)
  kinase still bound, per cent of control: 7.8%
GAK (human)
  kinase still bound, per cent of control: 22%
STK17B (human)
  kinase still bound, per cent of control: 2.8%
DAPK1 (human)
  kinase still bound, per cent of control: 8.7%
CDK7 (human)
  kinase still bound, per cent of control: 1.3%
DAPK2 (human)
  kinase still bound, per cent of control: 9%
DAPK3 (human)
  kinase still bound, per cent of control: 17%
PIK3CG (human)
  kinase still bound, per cent of control: 25%
STK17A (human)
  kinase still bound, per cent of control: 0.65%
PIM3 (human)
  kinase still bound, per cent of control: 5%
[1]
  kinase still bound, per cent of control: 21%
MYLK (human)
  kinase still bound, per cent of control: 12%
PIM1 (human) [2]
  kinase still bound, per cent of control: 2.9%
TTK (human)
  kinase still bound, per cent of control: 23%
ACVR2A (human)
  kinase still bound, per cent of control: 7.5%
PIM2 (human) [3]
  kinase still bound, per cent of control: 0.9%
HIPK1 (human)
  kinase still bound, per cent of control: 0%
RIOK1 (human)
  kinase still bound, per cent of control: 21%
TGFBR2 (human)
  kinase still bound, per cent of control: 2.8%
CDK16 (human)
  kinase still bound, per cent of control: 0.3%
CSNK2A2 (human)
  kinase still bound, per cent of control: 28%
RPS6KA4 KD2 (human)
  kinase still bound, per cent of control: 13%
PLK4 (human)
  kinase still bound, per cent of control: 0.3%
AAK1 (human)
  kinase still bound, per cent of control: 34%
MAPK15 (human)
  kinase still bound, per cent of control: 0.65%
ACVR2B (human)
  kinase still bound, per cent of control: 14%
GSK3A (human)
  kinase still bound, per cent of control: 10%
MKNK2 (human)
  kinase still bound, per cent of control: 33%
TAOK1 (human)
  kinase still bound, per cent of control: 3%
PIM1 (human) [4]
  IC50: 204 nM
PIM2 (human) [5]
  IC50: 274 nM

## COc1cc(C(N)=O)ccc1-c1ccc(/C=C2\SC(=N)NC2=O)o1
CSNK2A1 (human)
  kinase still bound, per cent of control: 18%
MAPK12 (human)
  kinase still bound, per cent of control: 27%
STK17B (human)
  kinase still bound, per cent of control: 1.6%
CDK7 (human)
  kinase still bound, per cent of control: 29%
DAPK2 (human)
  kinase still bound, per cent of control: 34%
PIK3CG (human)
  kinase still bound, per cent of control: 28%
STK17A (human)
  kinase still bound, per cent of control: 0.4%
PIM3 (human)
  kinase still bound, per cent of control: 5.6%
[1]
  kinase still bound, per cent of control: 5.1%
PIM1 (human) [2]
  kinase still bound, per cent of control: 3.4%
PIM2 (human) [3]
  kinase still bound, per cent of control: 0.95%
ZAP70 (human)
  kinase still bound, per cent of control: 29%
HIPK1 (human)
  kinase still bound, per cent of control: 5.2%
TGFBR2 (human)
  kinase still bound, per cent of control: 14%
CLK4 (human)
  kinase still bound, per cent of control: 17%
CSNK2A2 (human)
  kinase still bound, per cent of control: 31%
PLK4 (human)
  kinase still bound, per cent of control: 22%
GSK3A (human)
  kinase still bound, per cent of control: 28%
[6]
  kinase still bound, per cent of control: 29%
PIM1 (human) [4]
  IC50: 861 nM
PIM2 (human) [5]
  IC50: 762 nM
